How the values were obtained:
Rattus norvegicus [1] = test: Antiinflammatory activity against carrageenan-induced paw edema in Sprague-Dawley rat at 70 mg/kg, po pretreated 1 hr before carrageenan challenge measured after 4 hrs by plethysmometer; assay type: functional
Mus musculus = test: Analgesic activity in Swiss albino mouse assessed as inhibition of acetic acid-induced writhing response at 70 mg/kg, po pretreated 1 hr before acetic acid challenge; assay type: functional
Rattus norvegicus [2] = test: Gastrointestinal toxicity in Wistar rat assessed as ulcerogenic induces at 200 mg/kg, po after 17 hrs; assay type: organism-based; set-up: dose 200 mg/kg, route oral; details: in vivo

Structure (SMILES) | inhibition in vivo at 70 mg/kg (Rattus norvegicus [1]) [%] | inhibition in vivo at 70 mg/kg (Mus musculus) [%] | UI (Rattus norvegicus [2])
COc1ccc(C2NC(=S)NC3=C2C(=O)CC(C)(C)C3)cc1 (centres undefined) | 71 |  | 
CC1(C)CC(=O)C2=C(C1)N=C(NN)NC2c1ccc(Cl)cc1 (centres undefined) | 71 |  | 
CC1(C)CC(=O)C2=C(C1)N=C1NN=C([C@H](O)[C@@H](O)[C@@H](O)[C@H](O)CO)N1C2c1ccc(Cl)cc1 (some centres undefined) | 85 | 59 | 0.8
CC1(C)CC(=O)C2=C(C1)N=C1NN=C([C@H](O)[C@@H](O)[C@H](O)CO)N1C2c1ccc(Cl)cc1 (some centres undefined) | 82 | 71 | 0.6
CC1(C)CC(=O)C2=C(C1)N=C1NN=C([C@@H](O)[C@@H](O)[C@H](O)[C@H](O)CO)N1C2c1ccc(Cl)cc1 (some centres undefined) | 82 | 57 | 0.6
CC1(C)CC(=O)C2=C(C1)NC(=S)NC2c1ccccc1 (centres undefined) | 50 |  | 
CC1(C)CC(=O)C2=C(C1)N=C1NN=C([C@@H](O)[C@@H](O)[C@H](O)CO)N1C2c1ccc(Cl)cc1 (some centres undefined) | 82 | 56.6 | 0.5
CC1(C)CC(=O)C2=C(C1)N=C1NN=C([C@@H](O)[C@H](O)[C@H](O)CO)N1C2c1ccc(Cl)cc1 (some centres undefined) | 84 | 59.5 | 0.5
CC(=O)OC[C@H]1O[C@@H](SC2=NC3=C(C(=O)CC(C)(C)C3)C(c3ccc(Cl)cc3)N2)[C@H](OC(C)=O)[C@@H]1OC(C)=O (some centres undefined) | 76 |  | 
CC1(C)CC(=O)C2=C(C1)N=C1NN=C(c3ccc(Cl)cc3)N1C2c1ccc(Cl)cc1 (centres undefined) | 68 |  | 
CC1(C)CC(=O)C2=C(C1)N=C1NN=C([C@H](O)[C@@H](O)[C@H](O)[C@H](O)CO)N1C2c1ccc(Cl)cc1 (some centres undefined) | 86 | 73 | 0.5
CC(=O)OC[C@H]1O[C@@H](SC2=NC3=C(C(=O)CC(C)(C)C3)C(c3ccc(Cl)cc3)N2)[C@H](OC(C)=O)[C@@H](OC(C)=O)[C@H]1OC(C)=O (some centres undefined) | 76 |  | 
CC1(C)CC(=O)C2=C(C1)NC(=S)NC2c1ccc(Cl)cc1 (centres undefined) | 69 |  | 
CC(=O)OC[C@H]1O[C@@H](SC2=NC3=C(C(=O)CC(C)(C)C3)C(c3ccc(Cl)cc3)N2)[C@H](OC(C)=O)[C@@H](OC(C)=O)[C@@H]1OC(C)=O (some centres undefined) | 75 |  | 
CC(C)Cc1ccc(C(C)C(=O)O)cc1 (centres undefined) [IBUPROFEN] | 92 | 83.5 | 1.8

From ChEMBL document CHEMBL1154104, “S- and C-nucleosidoquinazoline as new nucleoside analogs with potential analgesic and anti-inflammatory activity” (Eur J Med Chem, 2009)
